Measurements reported in article PMC5218480 (PLoS ONE, 2017).

Tested on: MV-4-11 cells
Assay: Gene expression microarray analysis (Affymetrix PrimeView) and GSEA
Type: cell-based, human
Set-up: RFU PODN (11730768_x_at) / Fold change /veh PODN (11730768_x_at) / RFU LINC00158 (11744669_a_at) / Fold change /veh LINC00158 (11744669_a_at) / RFU DUSP10 (11751237_a_at) / Fold change /veh DUSP10 (11751237_a_at) / RFU ID3 (11757404_x_at) / Fold change /veh ID3 (11757404_x_at) / RFU PLEKHG5 (11737974_s_at) / Fold change /veh PLEKHG5 (11737974_s_at) / RFU LRRC4B (11730491_at) / Fold change /veh LRRC4B (11730491_at) / RFU GIMAP4 (11747438_a_at) / Fold change /veh GIMAP4 (11747438_a_at) / RFU KRT8 (11758183_x_at) / Fold change /veh KRT8 (11758183_x_at) / RFU CNN1 (11734310_a_at) / Fold change /veh CNN1 (11734310_a_at) / RFU VPS37D (11726825_at) / Fold change /veh VPS37D (11726825_at) / RFU C10orf10 (11716522_x_at) / Fold change /veh C10orf10 (11716522_x_at) / RFU KIR2DL2 /// KIR2DL4 /// KIR2DL5A /// KIR2DL5B /// KIR2DS1 /// KIR2DS2 /// KIR2DS3 /// KIR2DS4 /// KIR3DL3 /// KIR3DL3 /// KIR3DS1 (11738374_at) / Fold change /veh KIR2DL2 /// KIR2DL4 /// KIR2DL5A /// KIR2DL5B /// KIR2DS1 /// KIR2DS2 /// KIR2DS3 /// KIR2DS4 /// KIR3DL3 /// KIR3DL3 /// KIR3DS1 (11738374_at) / RFU C1QL1 (11718748_at) / Fold change /veh C1QL1 (11718748_at) / RFU TMPRSS4 (11747572_a_at) / Fold change /veh TMPRSS4 (11747572_a_at) / RFU HAMP (11756126_x_at) / Fold change /veh HAMP (11756126_x_at) / RFU RNFT2 (11725882_a_at) / Fold change /veh RNFT2 (11725882_a_at) / RFU NR4A2 (11747474_a_at) / Fold change /veh NR4A2 (11747474_a_at) / RFU ABCC12 (11746883_a_at) / Fold change /veh ABCC12 (11746883_a_at) / RFU TMEM136 (11760407_x_at) / Fold change /veh TMEM136 (11760407_x_at) / RFU CLDN22 /// WWC2 (11732394_at) / Fold change /veh CLDN22 /// WWC2 (11732394_at) / RFU HLA-DPB1 (11760878_x_at) / Fold change /veh HLA-DPB1 (11760878_x_at) / RFU SPINT1 (11716480_a_at) / Fold change /veh SPINT1 (11716480_a_at) / RFU GAP43 (11754022_s_at) / Fold change /veh GAP43 (11754022_s_at) / RFU A4GNT (11735810_at) / Fold change /veh A4GNT (11735810_at) / RFU PRB3 (11715151_x_at) / Fold change /veh PRB3 (11715151_x_at) / RFU TUBB4B (11761932_at) / Fold change /veh TUBB4B (11761932_at) / RFU CAPN14 (11732068_a_at) / Fold change /veh CAPN14 (11732068_a_at) / RFU TMCC2 (11721928_a_at) / Fold change /veh TMCC2 (11721928_a_at) / RFU IRGQ (11745062_a_at) / Fold change /veh IRGQ (11745062_a_at) / RFU FAM174B (11720279_a_at) / Fold change /veh FAM174B (11720279_a_at) / RFU TMPRSS4 (11748680_a_at) / Fold change /veh TMPRSS4 (11748680_a_at) / RFU FAM212B (11763350_a_at) / Fold change /veh FAM212B (11763350_a_at) / RFU PLEKHG5 (11743358_a_at) / Fold change /veh PLEKHG5 (11743358_a_at) / RFU ZSCAN30 (11745921_a_at) / Fold change /veh ZSCAN30 (11745921_a_at) / RFU CMKLR1 (11741424_a_at) / Fold change /veh CMKLR1 (11741424_a_at) / RFU LOC101060620 /// MAPK8IP1 (11723275_at) / Fold change /veh LOC101060620 /// MAPK8IP1 (11723275_at) / RFU SPTSSB (11747773_x_at) / Fold change /veh SPTSSB (11747773_x_at) / RFU PRSS12 (11739890_at) / Fold change /veh PRSS12 (11739890_at) / RFU BIN1 (11741810_x_at) / Fold change /veh BIN1 (11741810_x_at) / RFU WNT11 (11732464_a_at) / Fold change /veh WNT11 (11732464_a_at) / RFU C10orf10 (11716521_a_at) / Fold change /veh C10orf10 (11716521_a_at) / RFU C5orf56 (11738089_at) / Fold change /veh C5orf56 (11738089_at) / RFU CYB561 (11721691_x_at) / Fold change /veh CYB561 (11721691_x_at) / RFU ANKRD19P (11752326_a_at) / Fold change /veh ANKRD19P (11752326_a_at) / RFU OR2T12 /// OR2T33 /// OR2T8 (11738714_s_at) / Fold change /veh OR2T12 /// OR2T33 /// OR2T8 (11738714_s_at) / RFU VCAN (11748164_a_at) / Fold change /veh VCAN (11748164_a_at) / RFU JSRP1 (11732532_at) / Fold change /veh JSRP1 (11732532_at) / RFU KRTAP10-11 (11738290_x_at) / Fold change /veh KRTAP10-11 (11738290_x_at) / RFU MYO3A (11730013_a_at) / Fold change /veh MYO3A (11730013_a_at) / RFU EBF3 (11725865_a_at) / Fold change /veh EBF3 (11725865_a_at) / RFU CAMK2N1 (11719241_x_at) / Fold change /veh CAMK2N1 (11719241_x_at) / RFU C5orf56 (11738088_a_at) / Fold change /veh C5orf56 (11738088_a_at) / RFU OLFML3 (11715873_a_at) / Fold change /veh OLFML3 (11715873_a_at) / RFU LOC100653217 /// NTM (11731650_a_at) / Fold change /veh LOC100653217 /// NTM (11731650_a_at) / RFU MAPK11 (11762145_a_at) / Fold change /veh MAPK11 (11762145_a_at) / RFU FIZ1 (11724087_x_at) / Fold change /veh FIZ1 (11724087_x_at) / RFU OASL (11726364_x_at) / Fold change /veh OASL (11726364_x_at) / RFU SOX15 (11748057_x_at) / Fold change /veh SOX15 (11748057_x_at) / RFU CD79A (11719716_a_at) / Fold change /veh CD79A (11719716_a_at) / RFU HIST1H1D (11736915_at) / Fold change /veh HIST1H1D (11736915_at) / RFU CASKIN2 (11723855_a_at) / Fold change /veh CASKIN2 (11723855_a_at) / RFU LOC730098 (11760151_x_at) / Fold change /veh LOC730098 (11760151_x_at) / RFU OR4N2 (11742367_at) / Fold change /veh OR4N2 (11742367_at) / RFU PRRT2 (11749266_a_at) / Fold change /veh PRRT2 (11749266_a_at) / RFU SNX32 (11753110_a_at) / Fold change /veh SNX32 (11753110_a_at) / RFU CDHR5 (11726645_a_at) / Fold change /veh CDHR5 (11726645_a_at) / RFU RCAN1 (11760418_a_at) / Fold change /veh RCAN1 (11760418_a_at) / RFU FAM167A (11723789_a_at) / Fold change /veh FAM167A (11723789_a_at) / RFU FAM26E (11764081_at) / Fold change /veh FAM26E (11764081_at) / RFU ISYNA1 (11749810_s_at) / Fold change /veh ISYNA1 (11749810_s_at) / RFU ACY1 (11761880_at) / Fold change /veh ACY1 (11761880_at) / RFU 11764098_at / Fold change /veh 11764098_at / RFU SAMD14 (11745864_x_at) / Fold change /veh SAMD14 (11745864_x_at) / RFU NPB (11741838_a_at) / Fold change /veh NPB (11741838_a_at) / RFU TMPRSS6 (11731388_a_at) / Fold change /veh TMPRSS6 (11731388_a_at) / RFU KRTAP10-2 (11738614_at) / Fold change /veh KRTAP10-2 (11738614_at) / RFU ARHGAP8 /// PRR5-ARHGAP8 (11727945_x_at) / Fold change /veh ARHGAP8 /// PRR5-ARHGAP8 (11727945_x_at) / RFU KRTAP5-7 /// NADSYN1 (11734609_at) / Fold change /veh KRTAP5-7 /// NADSYN1 (11734609_at) / RFU RASL12 (11751679_a_at) / Fold change /veh RASL12 (11751679_a_at) / RFU CDKN2B (11736163_a_at) / Fold change /veh CDKN2B (11736163_a_at) / RFU PRF1 (11729649_at) / Fold change /veh PRF1 (11729649_at) / RFU, ZNF638 /// ZNF638-IT1 / Fold change vs veh, ZNF638 /// ZNF638-IT1 / RFU, PANK3 / Fold change vs veh, PANK3 / RFU, SH3YL1 / Fold change vs veh, SH3YL1 / RFU, ZEB2 / Fold change vs veh, ZEB2 / RFU, NRIP1 / Fold change vs veh, NRIP1 / RFU, PTTG1IP / Fold change vs veh, PTTG1IP / RFU, CAPN2 / Fold change vs veh, CAPN2 / RFU, MED14 / Fold change vs veh, MED14 / RFU, SNORA58 / Fold change vs veh, SNORA58 / RFU, C1orf63 / Fold change vs veh, C1orf63 / RFU, LRRFIP1 / Fold change vs veh, LRRFIP1 / RFU, NDUFAF7 / Fold change vs veh, NDUFAF7 / RFU, SLC12A2 / Fold change vs veh, SLC12A2 / RFU, IBTK / Fold change vs veh, IBTK / RFU, ESF1 / Fold change vs veh, ESF1 / Fold change vs veh, TMEM50B / RFU, TAOK1 / Fold change vs veh, TAOK1 / RFU, ACBD3 / Fold change vs veh, ACBD3 / RFU, TMA16 / Fold change vs veh, TMA16 / RFU, RWDD3 / Fold change vs veh, RWDD3 / RFU, BCAT1 / Fold change vs veh, BCAT1 / RFU, EDEM3 / Fold change vs veh, EDEM3 / RFU, TMEM33 / Fold change vs veh, TMEM33 / RFU, WDR75 / Fold change vs veh, WDR75 / RFU, AHCTF1 / Fold change vs veh, AHCTF1 / RFU, TFRC / Fold change vs veh, TFRC / RFU, ZDHHC17 / Fold change vs veh, ZDHHC17 / RFU, NOM1 / Fold change vs veh, NOM1 / RFU, ARL8B / Fold change vs veh, ARL8B / RFU, ZBTB11 / Fold change vs veh, ZBTB11 / RFU, TAMM41 / Fold change vs veh, TAMM41 / RFU, KIAA1704 /// LOC100996395 / Fold change vs veh, KIAA1704 /// LOC100996395 / RFU, ING1 / Fold change vs veh, ING1 / RFU, TRMT61B / Fold change vs veh, TRMT61B / RFU, FUBP3 / Fold change vs veh, FUBP3 / RFU, TP53 / Fold change vs veh, TP53 / RFU, TNKS2 / Fold change vs veh, TNKS2 / RFU, ZFP14 / Fold change vs veh, ZFP14 / RFU, ACTR2 / Fold change vs veh, ACTR2 / RFU, PPP3R1 / Fold change vs veh, PPP3R1 / RFU, PIK3R1 / Fold change vs veh, PIK3R1 / RFU, HNRNPA1 / Fold change vs veh, HNRNPA1 / RFU, RNF170 / Fold change vs veh, RNF170 / RFU, ZNF28 / Fold change vs veh, ZNF28 / RFU, RNGTT / Fold change vs veh, RNGTT / RFU, OGT / Fold change vs veh, OGT / RFU, BRD1 / Fold change vs veh, BRD1 / RFU, MARS / Fold change vs veh, MARS / RFU, ZNF655 / Fold change vs veh, ZNF655 / RFU, FAHD1 / Fold change vs veh, FAHD1 / RFU, BDP1 / Fold change vs veh, BDP1 / RFU, LRRCC1 / Fold change vs veh, LRRCC1 / RFU, ARID1A / Fold change vs veh, ARID1A / RFU, ZNF146 / Fold change vs veh, ZNF146 / RFU, ZNF330 / Fold change vs veh, ZNF330 / RFU, GPN3 / Fold change vs veh, GPN3 / RFU, C9orf123 / Fold change vs veh, C9orf123 / RFU, N4BP2L2 / Fold change vs veh, N4BP2L2 / RFU, ARFIP1 / Fold change vs veh, ARFIP1 / RFU, FAM179B / Fold change vs veh, FAM179B / RFU, BCL10 / Fold change vs veh, BCL10 / RFU, UHRF1BP1L / Fold change vs veh, UHRF1BP1L / RFU, BET1 / Fold change vs veh, BET1 / RFU, CNOT2 / Fold change vs veh, CNOT2 / RFU, ZNF268 / Fold change vs veh, ZNF268 / Fold change vs veh, ZNF507 / RFU, DGCR2 / Fold change vs veh, DGCR2 / RFU, WDSUB1 / Fold change vs veh, WDSUB1 / Fold change vs veh, HSP90B1 /// MIR3652 / RFU, ADSS / Fold change vs veh, ADSS / RFU, GK / Fold change vs veh, GK / RFU, ZNF148 / Fold change vs veh, ZNF148 / RFU, TAF9 / Fold change vs veh, TAF9 / RFU, SLC1A5 / Fold change vs veh, SLC1A5 / RFU, SLMO2 / Fold change vs veh, SLMO2 / RFU, ABCC4 / Fold change vs veh, ABCC4 / RFU, LOC101060439 /// RAP1B / Fold change vs veh, LOC101060439 /// RAP1B / RFU, RFX7 / Fold change vs veh, RFX7 / RFU, GTPBP10 / Fold change vs veh, GTPBP10 / RFU, CNEP1R1 / Fold change vs veh, CNEP1R1 / RFU, BIVM-ERCC5 /// ERCC5 / Fold change vs veh, BIVM-ERCC5 /// ERCC5 / RFU, ILF3 / Fold change vs veh, ILF3 / RFU 11762660_at / Fold change /veh 11762660_at / RFU VCAN (11757783_s_at) / Fold change /veh VCAN (11757783_s_at) / RFU DDX43 (11728927_at) / Fold change /veh DDX43 (11728927_at) / RFU KRT8 (11758188_x_at) / Fold change /veh KRT8 (11758188_x_at) / RFU NKD1 (11759106_at) / Fold change /veh NKD1 (11759106_at) / RFU SRD5A1 (11742802_a_at) / Fold change /veh SRD5A1 (11742802_a_at) / RFU TPSAB1 /// TPSB2 (11721975_s_at) / Fold change /veh TPSAB1 /// TPSB2 (11721975_s_at) / RFU GSTM3 (11746129_a_at) / Fold change /veh GSTM3 (11746129_a_at) / RFU IL23R (11737362_x_at) / Fold change /veh IL23R (11737362_x_at) / RFU TMEM51 (11727254_a_at) / Fold change /veh TMEM51 (11727254_a_at) / RFU PIWIL2 (11732686_x_at) / Fold change /veh PIWIL2 (11732686_x_at) / RFU ORM1 (11744905_x_at) / Fold change /veh ORM1 (11744905_x_at) / RFU CCDC152 (11743942_at) / Fold change /veh CCDC152 (11743942_at) / RFU ECM1 (11717891_a_at) / Fold change /veh ECM1 (11717891_a_at) / RFU IL23R (11748794_a_at) / Fold change /veh IL23R (11748794_a_at) / RFU TNFAIP8L3 (11732012_x_at) / Fold change /veh TNFAIP8L3 (11732012_x_at) / RFU MBOAT4 (11741988_at) / Fold change /veh MBOAT4 (11741988_at) / RFU 11764193_at / Fold change /veh 11764193_at / RFU TMEM53 (11763286_at) / Fold change /veh TMEM53 (11763286_at) / RFU MAGEB2 (11727129_at) / Fold change /veh MAGEB2 (11727129_at) / RFU TMEM200A (11744735_a_at) / Fold change /veh TMEM200A (11744735_a_at) / RFU CCDC152 (11751479_a_at) / Fold change /veh CCDC152 (11751479_a_at) / RFU FAM211A (11726209_a_at) / Fold change /veh FAM211A (11726209_a_at) / RFU RGS16 (11746705_a_at) / Fold change /veh RGS16 (11746705_a_at) / RFU VCAN (11755009_s_at) / Fold change /veh VCAN (11755009_s_at) / RFU RHOB (11743442_s_at) / Fold change /veh RHOB (11743442_s_at) / RFU RGS16 (11720943_a_at) / Fold change /veh RGS16 (11720943_a_at) / RFU RGS16 (11720944_at) / Fold change /veh RGS16 (11720944_at) / RFU, VPS4B / Fold change vs veh, VPS4B / RFU, CREB1 / Fold change vs veh, CREB1 / RFU, DNAJC13 / Fold change vs veh, DNAJC13 / RFU, GNAQ / Fold change vs veh, GNAQ / RFU, CDK5R1 / Fold change vs veh, CDK5R1 / RFU, ZRANB3 / Fold change vs veh, ZRANB3 / RFU, CUL4A / Fold change vs veh, CUL4A / RFU, CCNY / Fold change vs veh, CCNY / RFU, UFL1 / Fold change vs veh, UFL1 / RFU, COG3 / Fold change vs veh, COG3 / RFU, DIAPH2 / Fold change vs veh, DIAPH2 / RFU, SKA2 / Fold change vs veh, SKA2 / RFU, AFF3 / Fold change vs veh, AFF3 / RFU, LMF1 / Fold change vs veh, LMF1 / RFU, IPO11 / Fold change vs veh, IPO11 / RFU, DFFB / Fold change vs veh, DFFB / RFU, FOXP1 / Fold change vs veh, FOXP1 / RFU, CARD8 / Fold change vs veh, CARD8 / RFU, STRN3 / Fold change vs veh, STRN3 / RFU, ADK / Fold change vs veh, ADK / RFU, RASSF2 / Fold change vs veh, RASSF2 / RFU, WIPF1 / Fold change vs veh, WIPF1 / RFU, LARP1B / Fold change vs veh, LARP1B / RFU, RASA1 / Fold change vs veh, RASA1 / RFU, RB1 / Fold change vs veh, RB1 / RFU, PPFIA1 / Fold change vs veh, PPFIA1 / RFU, MAT2A / Fold change vs veh, MAT2A / RFU, CCT5 / Fold change vs veh, CCT5 / RFU, WDR92 / Fold change vs veh, WDR92 / RFU, CUX1 / Fold change vs veh, CUX1 / RFU, TTC7A / Fold change vs veh, TTC7A / RFU, TMEM135 / Fold change vs veh, TMEM135 / RFU, DEPTOR / Fold change vs veh, DEPTOR / RFU, CPM / Fold change vs veh, CPM / RFU, DNAJB6 / Fold change vs veh, DNAJB6 / RFU, CACNA2D3 / Fold change vs veh, CACNA2D3 / RFU, DTX4 / Fold change vs veh, DTX4 / RFU, TFCP2 / Fold change vs veh, TFCP2 / RFU, GMCL1 /// GMCL1P1 / Fold change vs veh, GMCL1 /// GMCL1P1 / RFU, AEBP2 / Fold change vs veh, AEBP2 / RFU, SNHG1 /// SNORD22 /// SNORD25 /// SNORD26 /// SNORD27 /// SNORD28 /// SNORD29 /// SNORD31 / Fold change vs veh, SNHG1 /// SNORD22 /// SNORD25 /// SNORD26 /// SNORD27 /// SNORD28 /// SNORD29 /// SNORD31 / Fold change (Aza/veh), C12orf56 (ProbeSet 11735607_a_at) / Fold change (ACY-1035/veh), C12orf56 (ProbeSet 11735607_a_at) / Fold change (Aza/veh), FGFR1OP (ProbeSet 11751329_s_at) / Fold change (ACY-1035/veh), FGFR1OP (ProbeSet 11751329_s_at) / Fold change (Aza/veh), VPS36 (ProbeSet 11739960_a_at) / Fold change (ACY-1035/veh), VPS36 (ProbeSet 11739960_a_at) / RFU SYPL1 (11715823_x_at) / Fold change /veh SYPL1 (11715823_x_at) / RFU IGFBP7 (11715501_s_at) / Fold change /veh IGFBP7 (11715501_s_at) / RFU REEP3 (11722064_at) / Fold change /veh REEP3 (11722064_at) / RFU IGLL1 (11728026_x_at) / Fold change /veh IGLL1 (11728026_x_at): dose or concentration left out as unconfirmed
Settings: MV-4-11 cells, 48 hours

Nc1ccc(-c2cccs2)cc1NC(=O)c1ccc2c(c1)cc(C1CC1)n2CCN1CCOCC1 [ACY-1035]
Fold change /veh CCDC152 (11743942_at): 1.01
